SMILES strings stand for the structures.

The term EC50 denotes the concentration that produces a half-maximal response. Read a low EC50 as higher potency in that assay.

The test system of the test is human cells, HSE-luciferase heat shock reporter. The test is described as follows: inducers of human heat shock response, cell-based, HSE luciferase (AID 1611). Particulars: measured here: HSE reporter induction potency.
Molecule `CC(COc1ccccc1)NC(C)[C@H](O)c1ccc(O)cc1` (stereo partly specified) came in with an EC50 of 4.3 µM.

`O=C1c2ccccc2C(=O)C1c1ccccc1` yielded an EC50 of 4.6 µM.

For the molecule `CC[C@H]1OC(=O)[C@H](C)[C@@H](O[C@H]2C[C@@](C)(OC)[C@@H](O)[C@H](C)O2)[C@H](C)[C@@H](O[C@@H]2O[C@H](C)C[C@H](N(C)C)[C@H]2O)[C@](C)(O)C[C@@H](C)CN(C)[C@H](C)[C@@H](O)[C@]1(C)O`, the EC50 was found to be 4.6 µM.

In the case of `Cc1ccc(C(=O)c2ccc(CC(=O)O)n2C)cc1`, the EC50 amounted to 5 µM.

`C[C@H]1O[C@@H](O[C@H]2[C@@H](O)C[C@H](O[C@H]3[C@@H](O)C[C@H](O[C@H]4CC[C@]5(C)C6CC[C@]7(C)[C@@H](C8=CC(=O)OC8)CC[C@]7(O)C6CC[C@@H]5C4)O[C@@H]3C)O[C@@H]2C)C[C@H](O)[C@@H]1O` (stereo partly specified) had an EC50 of 4 µM.

Take `CC(=O)O[C@]1(C(C)=O)CCC2C3C=C(Cl)C4=CC(=O)[C@@H]5C[C@@H]5[C@]4(C)C3CC[C@@]21C` (stereo partly specified): the EC50 came out at 4.7 µM.

Source of the values: PubChem BioAssay AID1611 (NINDS Approved Drug Screening Program, 2009).
